In ChEMBL document CHEMBL1154618, “Agonist vs antagonist behavior of delta opioid peptides containing novel phenylalanine analogues in place of Tyr(1)” (J Med Chem, 2009):
Activity calls are given as the source filed them. No cut-off for these calls is given here. Non-standard residues stand in square brackets, D forms with d. Residues, ends and D or L forms follow the SMILES beside them. Phe(2,6-Me2,4-CONH2) = Cc1cc(C(N)=O)cc(C)c1C[C@H](N)C(=O)O; Dmt = Cc1cc(O)cc(C)c1C[C@H](N)C(=O)O; Tic = O=C(O)[C@@H]1Cc2ccccc2CN1

Assays:
[1] = molecular target: Delta-type opioid receptor (Mus musculus) (UniProt P32300); assay: Antagonist activity at delta opioid receptor in mouse vas deferens assessed as inhibition of DPDPE-stimulated muscle contraction; format: functional, tissue-based
[2] = molecular target: Mu-type opioid receptor (Cavia porcellus, UniProt P97266); assay: Agonist activity at mu opioid receptor in guinea pig ileum assessed as effect on muscle contraction; format: functional, tissue-based
[3] = molecular target: Kappa-type opioid receptor (Cavia porcellus, UniProt P41144); assay: Displacement of [3H]U69-593 from kappa opioid receptor in guinea pig brain membrane; format: cell membranes
[4] = molecular target: Mu-type opioid receptor (Rattus norvegicus, UniProt P33535); assay: Displacement of [3H]DAMGO from mu opioid receptor in rat brain membrane; format: cell membranes
[5] = molecular target: Delta-type opioid receptor (Rattus norvegicus, UniProt P33533); assay: Displacement of [3H]DSLET from delta opioid receptor in rat brain membrane; format: cell membranes
[6] = molecular target: Mu-type opioid receptor (Cavia porcellus) (UniProt P97266); assay: Antagonist activity at mu opioid receptor in guinea pig ileum assessed as inhibition of […]; format: functional, tissue-based
Sequence of Mu-type opioid receptor (Cavia porcellus) (P97266 whole entry): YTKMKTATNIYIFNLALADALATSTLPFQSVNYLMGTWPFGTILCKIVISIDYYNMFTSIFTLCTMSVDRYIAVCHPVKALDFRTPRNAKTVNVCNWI

Sequence of Kappa-type opioid receptor (P41144 whole entry): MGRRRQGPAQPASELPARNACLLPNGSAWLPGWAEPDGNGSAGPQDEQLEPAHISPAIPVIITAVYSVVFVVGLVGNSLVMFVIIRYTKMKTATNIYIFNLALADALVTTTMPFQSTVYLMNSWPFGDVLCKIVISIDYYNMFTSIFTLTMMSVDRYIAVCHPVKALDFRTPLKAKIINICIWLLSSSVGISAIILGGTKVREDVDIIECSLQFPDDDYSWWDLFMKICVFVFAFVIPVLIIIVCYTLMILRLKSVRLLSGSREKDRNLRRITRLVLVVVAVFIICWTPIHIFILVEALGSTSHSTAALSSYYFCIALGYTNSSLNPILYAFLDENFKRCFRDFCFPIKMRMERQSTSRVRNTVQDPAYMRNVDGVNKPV
Sequence of Delta-type opioid receptor (Mus musculus) (P32300 whole entry): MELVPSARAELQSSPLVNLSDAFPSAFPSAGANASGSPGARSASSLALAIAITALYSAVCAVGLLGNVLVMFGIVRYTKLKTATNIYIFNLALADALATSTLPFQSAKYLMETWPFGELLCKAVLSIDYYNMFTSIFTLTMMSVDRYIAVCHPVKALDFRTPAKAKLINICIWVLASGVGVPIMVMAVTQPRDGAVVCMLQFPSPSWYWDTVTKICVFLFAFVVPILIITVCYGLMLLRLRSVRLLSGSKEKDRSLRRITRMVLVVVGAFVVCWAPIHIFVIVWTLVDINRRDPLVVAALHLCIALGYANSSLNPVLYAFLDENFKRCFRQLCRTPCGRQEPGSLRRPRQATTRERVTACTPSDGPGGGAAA
Sequence of Mu-type opioid receptor (Cavia porcellus, UniProt P97266) (P97266 whole entry): as the sequence (P97266 whole entry) above
Sequence of Mu-type opioid receptor (Rattus norvegicus, UniProt P33535) (P33535 whole entry): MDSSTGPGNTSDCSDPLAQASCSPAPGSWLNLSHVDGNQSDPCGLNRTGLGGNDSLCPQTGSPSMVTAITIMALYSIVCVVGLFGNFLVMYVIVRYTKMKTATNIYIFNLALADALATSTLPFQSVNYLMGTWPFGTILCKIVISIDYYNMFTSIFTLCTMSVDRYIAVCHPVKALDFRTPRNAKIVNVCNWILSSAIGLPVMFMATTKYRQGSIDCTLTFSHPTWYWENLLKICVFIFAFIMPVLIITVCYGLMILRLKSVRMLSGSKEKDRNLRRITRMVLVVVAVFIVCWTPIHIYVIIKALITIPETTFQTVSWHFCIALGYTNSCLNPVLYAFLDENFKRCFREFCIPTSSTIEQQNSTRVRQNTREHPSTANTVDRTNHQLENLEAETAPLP
Sequence of Delta-type opioid receptor (P33533 whole entry): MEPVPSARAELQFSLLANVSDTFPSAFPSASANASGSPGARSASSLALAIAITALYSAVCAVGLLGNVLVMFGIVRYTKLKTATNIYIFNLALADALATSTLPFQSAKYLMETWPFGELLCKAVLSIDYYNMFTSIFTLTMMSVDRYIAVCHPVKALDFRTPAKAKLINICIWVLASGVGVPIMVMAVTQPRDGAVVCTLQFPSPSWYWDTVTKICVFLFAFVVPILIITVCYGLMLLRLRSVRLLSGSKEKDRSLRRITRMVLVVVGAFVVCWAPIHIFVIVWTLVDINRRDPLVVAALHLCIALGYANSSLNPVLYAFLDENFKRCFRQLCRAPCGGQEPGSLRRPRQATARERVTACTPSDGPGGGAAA

SMILES	Ke [1] [nM]	IC50 ([2]; read-out: IC50) [nM]	Ki [3] [nM]	IC50 [2]	Ki [4] [nM]	Ki [5] [nM]	Ke [6]
N[C@@H](Cc1ccc(C(=O)NCCc2ccc(-c3ccccc3)cc2)cc1)C(=O)N1Cc2ccccc2C[C@H]1C(=O)N[C@@H](Cc1ccccc1)C(=O)O	18.7						
Cc1cc(O)cc(C)c1C[C@H](N)C(=O)N1Cc2ccccc2C[C@H]1C(=O)N[C@@H](Cc1ccccc1)C(=O)N[C@@H](Cc1ccccc1)C(=O)O (H-[Dmt][Tic]FF-OH)	0.196	769	> 1000				
N[C@@H](Cc1ccc(O)cc1)C(=O)N1Cc2ccccc2C[C@H]1C(=O)O (H-Tyr-[Tic]-OH)	263		> 10000	Not Active	> 1000	242	inactive
N[C@@H](Cc1ccc(C(=O)NCCc2ccc(-c3ccccc3)cc2)cc1)C(=O)N1Cc2ccccc2C[C@H]1C(=O)O	17.8						
Cc1cc(C(=O)NCCc2ccc(-c3ccccc3)cc2)cc(C)c1C[C@H](N)C(=O)N1Cc2ccccc2C[C@H]1C(=O)O	1.76						
N[C@@H](Cc1ccc(O)cc1)C(=O)N1Cc2ccccc2C[C@H]1C(=O)N[C@@H](Cc1ccccc1)C(=O)N[C@@H](Cc1ccccc1)C(=O)O (H-Y[Tic]FF-OH)		> 10000	> 1000				
Cc1cc(C(N)=O)cc(C)c1C[C@H](N)C(=O)N1Cc2ccccc2C[C@H]1C(=O)N[C@@H](Cc1ccccc1)C(=O)N[C@@H](Cc1ccccc1)C(=O)O (H-[Phe(2,6-Me2,4-CONH2)][Tic]FF-OH)	0.627		> 1000			0.501	
Cc1cc(O)cc(C)c1C[C@H](N)C(=O)N1Cc2ccccc2C[C@H]1C(=O)O (H-[Dmt]-[Tic]-OH)			> 1000	Not Active	1360		inactive
